{
  "source": "patent US5786344A",
  "about": "“Camptothecin drug combinations and methods with reduced side effects” (priority 1995, dated 1998)",
  "key": {"[1]": {"experiment": "Phase I toxicity evaluation (CALGB expanded toxicity criteria)", "assay_type": "in vivo, human", "description": "[…]. The detailed examples presented in the present application reflect treatment on 21 patients.\nSignificant gastrointestinal toxicity was first manifested at the second dose level (120 mg/m2). […] […]. […] Two of these cases were found at exploratory laparotomy to be due to progression of disease and one resolved after conservative therapy, but was likely due to progression of disease. […] In a few patients, however, high doses of ondansetron were required to achieve relief.\nToxicity assessment was done according to the CALGB expanded toxicity criteria. Patients who experienced>grade 2 diarrhea at any time while on study were begun on loperamide 4 mg p.o. followed by 2 mg p.o. after every stool up to a total dose of 16 mg/day. If loperamide was unsuccessful in controlling diarrhea, patients were begun on octreotide acetate 100-600 μg for 2-3 doses per day. Stool collections were also obtained to test for any co-existing infection. […]"}, "p-glycoprotein": {"target": "T1, p-glycoprotein (Homo sapiens, UniProt P08183)", "T1 construct": "membrane vesicles from the multidrug resistant breast tumor cell line; endogenous in cells; host or cells: MCF-7/Adr (multidrug resistant human breast cancer cell line), membrane vesicles", "T1 sequence (P08183 whole entry)": "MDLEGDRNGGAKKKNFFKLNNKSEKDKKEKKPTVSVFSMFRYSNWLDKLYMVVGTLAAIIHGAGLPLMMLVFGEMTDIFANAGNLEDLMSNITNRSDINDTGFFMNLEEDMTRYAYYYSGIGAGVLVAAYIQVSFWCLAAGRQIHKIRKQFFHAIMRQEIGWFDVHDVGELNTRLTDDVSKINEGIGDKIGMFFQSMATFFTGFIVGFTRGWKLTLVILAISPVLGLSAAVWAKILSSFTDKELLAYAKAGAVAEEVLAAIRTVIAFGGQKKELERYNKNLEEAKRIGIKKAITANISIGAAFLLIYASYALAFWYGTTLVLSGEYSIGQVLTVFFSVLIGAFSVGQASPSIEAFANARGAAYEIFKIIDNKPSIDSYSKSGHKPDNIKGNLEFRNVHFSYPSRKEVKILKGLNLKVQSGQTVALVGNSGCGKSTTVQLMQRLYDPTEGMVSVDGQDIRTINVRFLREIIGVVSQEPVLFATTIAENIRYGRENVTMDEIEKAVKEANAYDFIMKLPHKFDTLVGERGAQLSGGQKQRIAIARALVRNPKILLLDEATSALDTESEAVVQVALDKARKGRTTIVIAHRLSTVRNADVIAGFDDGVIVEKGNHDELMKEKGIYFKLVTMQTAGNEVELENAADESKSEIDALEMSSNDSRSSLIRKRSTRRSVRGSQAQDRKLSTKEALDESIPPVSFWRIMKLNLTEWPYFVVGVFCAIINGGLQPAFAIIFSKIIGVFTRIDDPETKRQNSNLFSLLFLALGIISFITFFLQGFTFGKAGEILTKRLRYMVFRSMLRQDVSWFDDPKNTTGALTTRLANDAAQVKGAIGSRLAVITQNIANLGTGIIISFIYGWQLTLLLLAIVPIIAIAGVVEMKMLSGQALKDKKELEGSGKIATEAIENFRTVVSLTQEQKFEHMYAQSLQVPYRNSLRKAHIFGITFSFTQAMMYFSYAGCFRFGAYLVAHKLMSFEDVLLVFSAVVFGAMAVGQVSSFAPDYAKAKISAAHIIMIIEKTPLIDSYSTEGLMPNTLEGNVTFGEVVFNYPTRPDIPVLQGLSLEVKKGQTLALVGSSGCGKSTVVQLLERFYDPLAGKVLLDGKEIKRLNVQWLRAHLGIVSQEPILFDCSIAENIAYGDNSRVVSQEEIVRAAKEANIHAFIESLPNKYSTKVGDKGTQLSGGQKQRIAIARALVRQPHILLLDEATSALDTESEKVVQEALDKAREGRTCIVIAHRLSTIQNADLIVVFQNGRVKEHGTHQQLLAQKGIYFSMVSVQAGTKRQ", "experiment": "in vitro", "assay_type": "binding", "source_text": "FIG. 5. […]. Membrane vesicles from the multidrug resistant human breast cancer tumor cell line […] were used. […]."}, "[2]": {"experiment": "Phase I pharmacokinetics of CPT-11, SN-38 and SN-38G in plasma/urine after 90 min iv infusion", "details": "for \"Biliary ratio\" (median): AUC SN-38/SN-38G", "description": "All patients met the standard laboratory criteria including criteria for adequate organ function. Informed, written consent was obtained from all patients prior to their first dose of CPT-11. The drug was given in 500 cc normal saline by intravenous infusion over 90 minutes on a weekly basis for four doses in a sixweek cycle. […] A second cycle was given with the same dose and schedule used during cycle 1. […] Patients who experienced dose limiting neutropenia were eligible to receive G-CSF at 5 μg/kg/day according to the criteria defined below.\nTo determine drug and metabolite levels, heparinized blood samples obtained on the first cycle of therapy, were centrifuged and the plasma was stored at -70° C. until analysis. CPT (camptothecin, 1 μg/ml, obtained from the National Cancer Institute, Bethesda, Md.) was used as an internal standard. One hundred μl of plasma was extracted with 2 ml of methanol, centrifuged at 2500×g for 10 min and the supernatant was evaporated to dryness. Reconstitution was done with 200 μl of methanol containing 0.1% 10M HCL (pH~2.0). For the estimation of SN-38G, plasma samples were extracted as described above. Prior to reconstitution, the samples were incubated with 1000 U of glucuronidase (Sigma Chemical Co., St. Louis, Mo.) for 2 hours at 37° C.\nAnalysis was done using a C18 column (μBondapak, 10 μm, 3.9×300 mm; Waters Associates, Milford, Mass.) preceded by a Novapak C18 guard column. […] Detection was monitored by a Hitachi F1050 Fluorescence detector (Hitachi Instruments Inc., Naperville, Ill.) with a λex at 375 nm and λem at 566 nm. […] SN-38G concentrations were determined as the increase in SN-38 concentrations following incubation with glucuronidase.\nThe plasma concentration-time data of CPT-11, SN-38 and SN-38G were analyzed by non-compartmental analysis using PCNONLIN (SCI, Lexington, Ky.). The area under the plasma concentration-time curve (AUC) from time zero (predose) to the time of the last quantifiable concentration (AUCt) was calculated by the trapezoidal rule. The AUC extrapolated to time infinity (AUCt →.infin.) was estimated by dividing the last quantifiable concentration by the terminal rate constant obtained by the log-linear regression of the terminal elimination phase. The AUC was the summation of AUCt and AUCt→.infin.. Clearance (CL) was estimated as the ratio of the dose and AUC.\nThe present study employed this principle to obtain an estimate of SN-38 excreted in the bile. Since glucuronidation is the major pathway of elimination of SN-38, the fraction of SN-38 not conjugated would be primarily excreted in the bile. The net biliary concentration of SN-38 would then be a resultant of its formation and elimination. This concentration was expressed as the \"biliary ratio\" which was the ratio of AUC of SN-38 to SN-38G. To control for individual variability in the amount of available drug, the ratio was multiplied by the AUC of CPT-11 to obtain a \"biliary index\" of SN-38.\nThe nonparametric Mann-Whitney test was employed to test for differences in pharmacokinetic outcomes between two patient groups, defined by the worst severity of diarrhea experienced in the first two cycles of CPT-11 treatment. Statistical tests were performed in the Number Cruncher Statistical System (Dr. Jerry Hintz, Kaysville, Utah). A two-sided significance level of less than or equal to 0.05 was considered statistically significant."}, "in vivo": {"experiment": "in vivo", "details": "rat, in vivo, iv, 20 mg/kg", "source_text": "(§1) Of these 2 types of inducers, phenobarbital has been used as an […] and a mildly sedative agent in humans. The inventors' objective here was to investigate the effect of phenobarbital administration on the glucuronidation of SN-38 in rats.\n(§2) Animal protocol: Female Wistar rats (~200 gm) having a permanent catheter installed in the right jugular vein were obtained from Charles River Breeding Laboratories (Wilmington, Mass.).\n(§3) Three rats were given a single intraperitoneal dose of 100 mg/kg phenobarbital in physiological saline followed by 0.1% (w/v) phenobarbital in drinking water for four days. […] After each sample the catheter was flushed with an equal volume of physiologic saline. The samples were immediately centrifuged at 2500×g for 10 minutes and the plasma obtained was stored at -70° C. until analysis.\n(§4) Data Analysis: The plasma concentration-time profile of the control and pretreated groups of rats were analyzed using non-compartmental methods (PCNONLIN, SCI, Lexington, Ky.). […] The nonparametric Mann-Whitney test was used to test for differences in AUC between the control and pretreated groups."}, "UDP-GT": {"system": "UDP-GT", "experiment": "in vivo", "source_text": "as §1, §2, §3, §4"}},
  "note": "Values joined by “and” are separate entries in the source; they are usually repeats but may differ in a detail not shown here. Identical values can stand only once.",
  "data": [
    {"smiles": "CCc1c2c(nc3ccc(OC(=O)N4CCC(N5CCCCC5)CC4)cc13)-c1cc3c(c(=O)n1C2)COC(=O)[C@]3(O)CC", "note": "[CPT-11, 7-ethyl-10-[4-(1-piperidino)-1-piperidino)carbonyloxycamptot hecin]", "values": [
      {"measurement": "myelosuppression", "setting": "[1]; 100 mg/m2", "value": "not a significant toxicity"},
      {"measurement": "diarrhea", "setting": "[1]; 100 mg/m^2", "value": "No diarrhea was observed"},
      {"measurement": "myelosuppression", "setting": "[1]; 120 mg/m2", "value": "dose-limiting in one patient"},
      {"measurement": "patients developing grade 3-4 diarrhea", "setting": "[1]; 120 mg/m^2", "value": 34, "unit": "%"},
      {"measurement": "myelosuppression", "setting": "[1]; 145 mg/m2, ameliorated by prophylactic G-CSF", "value": "dose-limiting in two patients"},
      {"measurement": "neutropenia >grade 1", "setting": "[1]; 145 mg/m2 with G-CSF", "value": "No cases"},
      {"measurement": "patients developing grade 3-4 diarrhea", "setting": "[1]; 145 mg/m^2", "value": 50, "unit": "%"},
      {"measurement": "neutropenic fevers", "setting": "[1]; 175 mg/m2, first two patients, despite prophylactic G-CSF", "value": "hospitalized with neutropenic fevers"},
      {"measurement": "patients developing grade 3-4 diarrhea", "setting": "[1]; 175 mg/m^2", "value": 100, "unit": "%"},
      {"measurement": "major toxicities", "setting": "[1]; 100-175 mg/m2", "value": "myelosuppression, diarrhea, and abdominal cramping pain"},
      {"measurement": "abdominal cramping", "setting": "[1]; Patients 4 (120 mg/m2), 21 and 15 (145 mg/m2)", "value": "grade 3 abdominal cramping"},
      {"measurement": "neutropenic fevers", "setting": "[1]; Patients 13 and 16, 145 mg/m2, cycle 1", "value": "hospitalized with neutropenic fevers"},
      {"measurement": "small bowel obstructions", "setting": "[1]; likely due to progression of disease", "value": "Three patients developed small bowel obstructions"},
      {"measurement": "nausea and vomiting", "setting": "[1]; majority of patients, doses >120 mg/m2", "value": "grade 1-2 nausea and vomiting"},
      {"measurement": "abdominal cramps", "setting": "[1]; other patients", "value": "Four other patients had mild (grade 1) abdominal cramps"},
      {"measurement": "substrate of p-glycoprotein", "setting": "p-glycoprotein", "value": "substrates of p-glycoprotein"},
      {"measurement": "inhibition at 10 µM", "setting": "p-glycoprotein; human, mcf-7/adr membrane vesicles", "value": 80, "unit": "%"},
      {"measurement": "\"biliary index\" (median)", "setting": "[2]; 145 mg/m2, Grade 0-2 diarrhea, p=0.03", "value": "2275 and 2276"},
      {"measurement": "\"biliary index\" (median)", "setting": "[2]; 145 mg/m2, Grade 3-4 diarrhea, p=0.03", "value": 4747},
      {"measurement": "\"Biliary ratio\" (median)", "setting": "[2]; 145 mg/m^2, Grade 0-2 diarrhea, n = 5", "value": 0.27},
      {"measurement": "\"biliary index\" (median)", "setting": "[2]; 145 mg/m^2, Grade 0-2 diarrhea, n = 5, p 0.03", "value": 2276, "unit": "ng·h/mL"},
      {"measurement": "\"Biliary ratio\" (median)", "setting": "[2]; 145 mg/m^2, Grade 3-4 diarrhea, n = 5", "value": 0.53},
      {"measurement": "\"biliary index\" (median)", "setting": "[2]; 145 mg/m^2, Grade 3-4 diarrhea, n = 5, p 0.03", "value": 4747, "unit": "ng·h/mL"},
      {"measurement": "\"biliary index\"", "setting": "[2]; 4 of 5 patients with grade 3-4 diarrhea, 145 mg/m^2", "value": "above 4000"},
      {"measurement": "effect of pretreatment with G-CSF on pharmacokinetics", "setting": "[2]; CPT-11 and its metabolites", "value": "no effect"},
      {"measurement": "\"biliary index\" (median)", "setting": "[2]; all dose levels, grade 0-2 diarrhea, n=12, p=0.0004", "value": 2228},
      {"measurement": "\"biliary index\" (median)", "setting": "[2]; all dose levels, grade 3-4 diarrhea, n=9, p=0.0004", "value": 5499},
      {"measurement": "increase of AUC from 100 to 175 mg/m^2", "setting": "[2]; in vivo", "value": 2.6, "unit": "fold"},
      {"measurement": "interpatient variability of AUC (percent coefficient of variation)", "setting": "[2]; in vivo", "value": "17-57%"},
      {"measurement": "patients with grade 3-4 diarrhea having index estimates above 4000", "setting": "[2]; in vivo", "value": "about 90%"},
      {"measurement": "\"biliary index\"", "setting": "[2]; one patient, grade 3-4 diarrhea, c diff+", "value": 3028},
      {"measurement": "AUC at 6 h", "setting": "in vivo; AUC CPT-11, control, CPT-11 20 mg/kg iv, n = 4, 0-6 h", "value": "7700 ± 2670", "unit": "ng·h/mL"},
      {"measurement": "AUC at 6 h", "setting": "in vivo; AUC CPT-11, phenobarbital pretreated, CPT-11 20 mg/kg, n = 2", "value": 3060, "unit": "ng·h/mL"},
      {"measurement": "decrease in availability", "setting": "UDP-GT; UDP-GT induction by phenobarbital", "value": "~2", "unit": "fold"},
      {"measurement": "decline in AUC", "setting": "UDP-GT; phenobarbital pretreated", "value": 60, "unit": "%"},
      {"measurement": "Change in AUC CPT-11", "setting": "UDP-GT; phenobarbital pretreated vs control", "value": -60.29, "unit": "%"}
    ]}
  ]
}
